Legend:
HIV-1 [1] = conditions: CD4 T lymphocytes; cited from earlier work
Influenza A virus (IAV) [2] = conditions: cited from earlier work
Influenza A virus (IAV) [3] = conditions: IAV-infected mice vs solvent-treated control; cited from earlier work
[4] = system: Murine leukemia virus (MLV), Avian leukosis virus (ALV), and Human immunodeficiency virus (HIV); conditions: HEK293T cells transfected with viral receptors; cited from earlier work
Measles virus (MeV) = conditions: cited from earlier work
Influenza A virus (IAV) [5] = conditions: cited from earlier work; remark: listed apart in the source
Influenza A virus (IAV) [6] = conditions: MDCK cells; cited from earlier work
HIV-1 [7] = conditions: cited from earlier work
HIV-1 [8] = conditions: cited from earlier work; remark: listed apart in the source
[9] = system: lenti-GFP vector viral particles; test: Lentiviral vector (lenti-GFP) transduction of cells, flow cytometry; conditions: B11-20AA plus polybrene, 3 days post infection, viable cells (low PI)
Procedure: Viral transduction of cells was measured at 3 days post infection by flow cytometry. (A) uninfected cells control. (B) Cells were infected with a lenti-GFP vector viral particles. […] Transduction efficiency was measured by the percentage of GFP+ cells. PI,_propidium iodide, was added before flow cytometry for cytotoxicity control (FL3). GFP+ cells were counted only when the cells are viable (low PI staining).

[10] = system: Lenti-GFP virion particles; test: Lentiviral virion infectivity after virion incorporation of actin-based peptide; conditions: virions first incubated with peptide to allow virion incorporation; equal amount of virions
Procedure: (A) Uninfected cells control. (B) Lenti-GFP virion particles were used to directly infect target cells. […] An equal amount of virion particles in (B) and (C) were used for infection. Virion infectivity was measured by the percentage of GFP+ cells.

HEK293T cells = test: Liposome transfection of GFP-expression vector DNA with actin-based peptide; format: cell-based; conditions: Lenti-GFP DNA + liposome + peptide, 48 hours post transfection
Procedure: FIG. 6: Example of combination of actin-based peptide with liposome to deliver nucleic acids into cells. HEK293T cells were transfected with a GFP-expression vector DNA (Lenti-GFP) in complex with liposome (DNA+Lipo) or with liposome and an actin-based peptide (N9-A20) (DNA+Lipo+N9). Following transfection, cells were quantified for GFP expression at 48 hours post transfection by flow cytometry.

CD144 (VE-cadherin) = test: Surface expression of CD144 on H9 lymphocytes, flow cytometry; format: cell-based, Human; conditions: H9 lymphocytes treated 40 minutes
Procedure: (§1) FIG. 7: Example of actin-based peptide to enhance surface expression of multiple cellular receptors including CD325 (N-cadherin), CD144 (VE-cadherin), and CD324 (E-cadherin), which are surface molecule for cell-cell and cell-extracellular matrix binding and adhesion. (A) Human H9 lymphocyte (derivative of HutT 78 cell, from ATCC) were not treated or treated with an actin-based peptide (N7-20AA) for 40 minutes. Cells were stained on ice with PerCy-Cy5.5-labeled mouse anti-human CD325 antibody. Surface expression of CD325 before and after N7-20AA was quantified by flow cytometer. […] (B) Human H9 lymphocyte were not treated or treated with an actin-based peptide (N7-20AA) for 40 minutes. Cells were stained on ice with FITC-labeled mouse anti-human CD144 antibody. Surface expression of CD144 before and after N7-20AA was quantified by flow cytometer. […] (C) Human H9 lymphocyte were not treated or treated with an actin-based peptide (N7-20AA) for 40 minutes. Cells were stained on ice with PE-labeled mouse anti-human CD324 antibody. Surface expression of CD324 before and after N7-20A was quantified by flow cytometer.

CD324 (E-cadherin) = test: Surface expression of CD324 on H9 lymphocytes, flow cytometry; format: cell-based, Human; conditions: H9 lymphocytes treated 40 minutes
Procedure: as §1

CD325 (N-cadherin) = test: Surface expression of CD325 on H9 lymphocytes, flow cytometry; format: cell-based, Human; conditions: H9 lymphocytes treated 40 minutes
Procedure: as §1

O=C1CSC(c2cccc(Br)c2)N1c1cc(Cl)ccc1O (stereo not drawn) [CK-548]
CD4 T cell activation and cytotoxicity at effective dosages (HIV-1 [1]): did not affect CD4 T cell activation or induce cytotoxicity | HIV-1 replication (HIV-1 [1]): dramatically reduced HIV-1 replication

CCN(CC)CCCC(C)Nc1nc(C)cc(Nc2ccc3nc(C)cc(N)c3c2)n1 (stereo not drawn) [NSC23766]
IC50 (Influenza A virus (IAV) [2]; A549 cells, read-out: IC50, reduction of viral replication): 22 µM | Viral protein expression (Influenza A virus (IAV) [2]): reduced viral protein expression | Body weights (Influenza A virus (IAV) [3]): increased body weights | Survivability (Influenza A virus (IAV) [3]): higher survivability | Titer of IAV in lung tissue (Influenza A virus (IAV) [3]): reduce titer of IAV in lung tissue

Cc1ccc2c(c1)C(=O)C1(O)CCN(c3ccccc3)C1=N2 (stereo not drawn) [blebbistatin]
Virus surfing [4]: eliminated virus surfing

C=C1[C@@H](C)[C@H]2[C@H](Cc3ccccc3)NC(=O)[C@]23[C@H](OC(C)=O)/C=C/[C@@](C)(O)C(=O)[C@@H](C)C/C=C/[C@H]3[C@@H]1O [cytochalasin D]
Actin and H co-immunoprecipitation with M protein (Measles virus (MeV)): dramatically reduced actin co-immunoprecipitating with M, while enhancing H co-immunoprecipitation | Co-transport of M-RNP to the cell surface (Measles virus (MeV)): reduces co-transport of M-RNP to the cell surface | Rate of cell-cell fusion (Measles virus (MeV)): enhanced the rate of cell-cell fusion | Virus surfing [4]: eliminated virus surfing | Titers of filamentous and spherical virions (Influenza A virus (IAV) [5]): dramatically abrogated the titers of the filamentous, but not spherical, virions | Distribution of plasma membrane HA, lipid rafts and actin (Influenza A virus (IAV) [6]): dramatically redistributed | Accumulation of early and late reverse transcription products (HIV-1 [7]; pretreating cells, not 2 hours post-infection): reduced the accumulation of early and late reverse transcription products | Reduction of nuclear accumulation of late RT products (HIV-1 [7]; pretreatment): 25 fold

C/C1=C\[C@H](C)C[C@H](C)OC(=O)C[C@H](c2ccc(O)cc2)NC(=O)[C@@H](Cc2c(Br)[nH]c3ccccc23)N(C)C(=O)[C@H](C)NC(=O)[C@@H](C)C1 [jasplakinolide]
Co-transport of M-RNP to the cell surface (Measles virus (MeV)): not affecting M-RNP co-transport | Free-virus production (Measles virus (MeV)): blocked free-virus production | Distribution of plasma membrane HA, lipid rafts and actin (Influenza A virus (IAV) [6]): dramatically redistributed

C/C1=C/C(=O)O[C@@H]2C[C@@H](CC[C@H](C)/C=C\C=C\CC1)O[C@@](O)([C@@H]1CSC(=O)N1)C2 [latrunculin A]
gag mRNA localisation (HIV-1 [8]): caused retention of gag mRNA in the nucleus | Distribution of plasma membrane HA, lipid rafts and actin (Influenza A virus (IAV) [6]): dramatically redistributed

RRRRRRRR(G/A)0-20DIKEKLCYVALDFEQEMATA [B11-20AA]
Transduction efficiency (percentage of GFP+ cells) [9]: Enhancement of lentiviral vector transduction | Virion infectivity (percentage of GFP+ cells) [10]: Enhancement of lentiviral virion infectivity

RRRRRRRR(G/A)0-20HTVPIYEGYALPHAILRLDL [N9-A20]
Delivery of nucleic acids into cells (GFP expression) (HEK293T cells): enhances delivery of nucleic acids into cells

RRRRRRRR(G/A)0-20QIMFETFNTPAMYVAIQAVL [N7-20AA]
Surface expression of CD144 (CD144 (VE-cadherin)): up-regulation of surface expression of CD144 | Surface expression of CD324 (CD324 (E-cadherin)): up-regulation of surface expression of CD324 | Surface expression of CD325 (CD325 (N-cadherin)): up-regulation of surface expression of CD325

— patent US20240108687A1, “COMPOSITIONS AND METHODS FOR USING COMBINATIONS OF ACTIN-BASED PEPTIDES TO MODULATE CELLULAR BIOACTIVITY” (Virongy L.L.C., priority 2021, published 2024)
